From patent US20230183259A1, “Crystal Form Of Thiofuran Pyridazine Compound, Preparation Method Therefor And Application Thereof” (ZHEJIANG MEDICINE CO., LTD. XINCHANG PHARMACEUTICAL FACTORY, priority 2020, published 2023)

Tests used:
[1] = acceleration test (stability); assay type: physicochemical; conditions: 40° C.±2° C., relative humidity 75%±5%
Description: (§1) Stability tests were performed on the samples of Examples 1, 2, 3, 4 and 5. […] Please refer to the results of the acceleration test (40° C.±2° C., relative humidity 75%±5%) of Table 1 and the results of the long-term stability test (25° C.±2° C., relative humidity 60%±10%) of Table 2.

long-term stability test = assay type: physicochemical; conditions: 25° C.±2° C., relative humidity 60%±10%
Description: as §1

(S)-2-(4-fluorophenyl)-4-(piperidine-3-aminomethyl)thieno[2,3-d]pyridazine-7-carboxamide hydrochloride [Example 110601-1]
(%) Impurity B (%) ([1]; 0 month): 0.00%
Crystal form ([1]; 0 month): unchanged
appearance ([1]; 0 month): yellow crystalline powder
Enantiomer (%) ([1]; 0 month, hydrochloride): 0.11%
Impurity A (%) ([1]; 0 month, hydrochloride): 0.36%
Impurity C (%) ([1]; 0 month, hydrochloride): 0.03%
Loss on drying (%) ([1]; 0 month, hydrochloride): 7.1%
Single largest impurity (%) ([1]; 0 month, hydrochloride): 0.02%
Total relevant substances (%) ([1]; 0 month, hydrochloride): 0.47%
content(%) ([1]; 0 month, hydrochloride): 99.1%
Crystal form ([1]; 1 month): unchanged
Impurity C (%) ([1]; 1 month): 0.02%
appearance ([1]; 1 month): yellow crystalline powder
(%) Impurity B (%) ([1]; 1 month, hydrochloride): 0.00%
Enantiomer (%) ([1]; 1 month, hydrochloride): 0.13%
Impurity A (%) ([1]; 1 month, hydrochloride): 0.34%
Loss on drying (%) ([1]; 1 month, hydrochloride): 7.1%
Single largest impurity (%) ([1]; 1 month, hydrochloride): 0.02%
Total relevant substances (%) ([1]; 1 month, hydrochloride): 0.46%
content(%) ([1]; 1 month, hydrochloride): 100.5%
Crystal form ([1]; 2 months): unchanged
appearance ([1]; 2 months): yellow crystalline powder
(%) Impurity B (%) ([1]; 2 months, hydrochloride): 0.00%
Enantiomer (%) ([1]; 2 months, hydrochloride): 0.11%
Impurity A (%) ([1]; 2 months, hydrochloride): 0.35%
Impurity C (%) ([1]; 2 months, hydrochloride): 0.02%
Loss on drying (%) ([1]; 2 months, hydrochloride): 7.1%
Single largest impurity (%) ([1]; 2 months, hydrochloride): 0.02%
Total relevant substances (%) ([1]; 2 months, hydrochloride): 0.44%
content(%) ([1]; 2 months, hydrochloride): 100.6%
(%) Impurity B (%) ([1]; 3 months): 0.00%
Crystal form ([1]; 3 months): unchanged
Impurity C (%) ([1]; 3 months): 0.02%
appearance ([1]; 3 months): yellow crystalline powder
Enantiomer (%) ([1]; 3 months, hydrochloride): 0.1%
Impurity A (%) ([1]; 3 months, hydrochloride): 0.33%
Loss on drying (%) ([1]; 3 months, hydrochloride): 7.0%
Single largest impurity (%) ([1]; 3 months, hydrochloride): 0.03%
Total relevant substances (%) ([1]; 3 months, hydrochloride): 0.44%
content(%) ([1]; 3 months, hydrochloride): 99.6%
(%) Impurity B (%) ([1]; 6 months): 0.00%
Crystal form ([1]; 6 months): unchanged
Impurity C (%) ([1]; 6 months): 0.02%
appearance ([1]; 6 months): yellow crystalline powder
Enantiomer (%) ([1]; 6 months, hydrochloride): 0.08%
Impurity A (%) ([1]; 6 months, hydrochloride): 0.30%
Loss on drying (%) ([1]; 6 months, hydrochloride): 7.0%
Single largest impurity (%) ([1]; 6 months, hydrochloride): 0.03%
Total relevant substances (%) ([1]; 6 months, hydrochloride): 0.41%
content(%) ([1]; 6 months, hydrochloride): 99.6%
Crystal form (long-term stability test; 0 month): unchanged
ImpurityB(%) (long-term stability test; 0 month): 0.00%
Content (calculated by dried product )(%) (long-term stability test; 0 month, hydrochloride): 99.1%
Enantiomers (%) (long-term stability test; 0 month, hydrochloride): 0.11%
ImpurityA(%) (long-term stability test; 0 month, hydrochloride): 0.36%
ImpurityC(%) (long-term stability test; 0 month, hydrochloride): 0.03%
Loss on drying (%) (long-term stability test; 0 month, hydrochloride): 7.1%
Single largest impurity (%) (long-term stability test; 0 month, hydrochloride): 0.02%
Total relevant substances (%) (long-term stability test; 0 month, hydrochloride): 0.47%
appearance (long-term stability test; 0 month, hydrochloride): yellow crystalline powder
Crystal form (long-term stability test; 3 months): unchanged
ImpurityB(%) (long-term stability test; 3 months): 0.00%
ImpurityC(%) (long-term stability test; 3 months): 0.02%
Content (calculated by dried product )(%) (long-term stability test; 3 months, hydrochloride): 99.9%
Enantiomers (%) (long-term stability test; 3 months, hydrochloride): 0.11%
ImpurityA(%) (long-term stability test; 3 months, hydrochloride): 0.35%
Loss on drying (%) (long-term stability test; 3 months, hydrochloride): 7.0%
Single largest impurity (%) (long-term stability test; 3 months, hydrochloride): 0.02%
Total relevant substances (%) (long-term stability test; 3 months, hydrochloride): 0.45%
appearance (long-term stability test; 3 months, hydrochloride): yellow crystalline powder
Crystal form (long-term stability test; 6 months): unchanged
ImpurityB(%) (long-term stability test; 6 months): 0.00%
Content (calculated by dried product )(%) (long-term stability test; 6 months, hydrochloride): 99.8%
Enantiomers (%) (long-term stability test; 6 months, hydrochloride): 0.08%
ImpurityA(%) (long-term stability test; 6 months, hydrochloride): 0.34%
ImpurityC(%) (long-term stability test; 6 months, hydrochloride): 0.03%
Loss on drying (%) (long-term stability test; 6 months, hydrochloride): 7.0%
Single largest impurity (%) (long-term stability test; 6 months, hydrochloride): 0.02%
Total relevant substances (%) (long-term stability test; 6 months, hydrochloride): 0.41%
appearance (long-term stability test; 6 months, hydrochloride): yellow crystalline powder
Crystal form (long-term stability test; 9 months): unchanged
ImpurityC(%) (long-term stability test; 9 months): 0.02%
Content (calculated by dried product )(%) (long-term stability test; 9 months, hydrochloride): 99.8%
Enantiomers (%) (long-term stability test; 9 months, hydrochloride): 0.08%
ImpurityA(%) (long-term stability test; 9 months, hydrochloride): 0.34%
ImpurityB(%) (long-term stability test; 9 months, hydrochloride): 0.02%
Loss on drying (%) (long-term stability test; 9 months, hydrochloride): 7.0%
Single largest impurity (%) (long-term stability test; 9 months, hydrochloride): 0.03%
Total relevant substances (%) (long-term stability test; 9 months, hydrochloride): 0.47%
appearance (long-term stability test; 9 months, hydrochloride): yellow crystalline powder
Crystal form (long-term stability test; 12 months): unchanged
ImpurityB(%) (long-term stability test; 12 months): 0.01%
Single largest impurity (%) (long-term stability test; 12 months): 0.02%
Content (calculated by dried product )(%) (long-term stability test; 12 months, hydrochloride): 99.4%
Enantiomers (%) (long-term stability test; 12 months, hydrochloride): 0.1%
ImpurityA(%) (long-term stability test; 12 months, hydrochloride): 0.34%
ImpurityC(%) (long-term stability test; 12 months, hydrochloride): 0.02%
Loss on drying (%) (long-term stability test; 12 months, hydrochloride): 7.1%
Total relevant substances (%) (long-term stability test; 12 months, hydrochloride): 0.43%
appearance (long-term stability test; 12 months, hydrochloride): yellow crystalline powder
Crystal form (long-term stability test; 18 months): unchanged
ImpurityB(%) (long-term stability test; 18 months): 0.00%
Single largest impurity (%) (long-term stability test; 18 months): 0.02%
Content (calculated by dried product )(%) (long-term stability test; 18 months, hydrochloride): 99.5%
Enantiomers (%) (long-term stability test; 18 months, hydrochloride): 0.07%
ImpurityA(%) (long-term stability test; 18 months, hydrochloride): 0.37%
ImpurityC(%) (long-term stability test; 18 months, hydrochloride): 0.04%
Loss on drying (%) (long-term stability test; 18 months, hydrochloride): 7.0%
Total relevant substances (%) (long-term stability test; 18 months, hydrochloride): 0.45%
appearance (long-term stability test; 18 months, hydrochloride): yellow crystalline powder
Crystal form (long-term stability test; 24 months): unchanged
Enantiomers (%) (long-term stability test; 24 months): 0.08%
ImpurityB(%) (long-term stability test; 24 months): 0.00%
ImpurityC(%) (long-term stability test; 24 months): 0.02%
Single largest impurity (%) (long-term stability test; 24 months): 0.02%
Content (calculated by dried product )(%) (long-term stability test; 24 months, hydrochloride): 98.3%
ImpurityA(%) (long-term stability test; 24 months, hydrochloride): 0.37%
Loss on drying (%) (long-term stability test; 24 months, hydrochloride): 7.4%
Total relevant substances (%) (long-term stability test; 24 months, hydrochloride): 0.43%
appearance (long-term stability test; 24 months, hydrochloride): yellow crystalline powder
Crystal form (long-term stability test; 36 months): unchanged
ImpurityC(%) (long-term stability test; 36 months): 0.02%
Single largest impurity (%) (long-term stability test; 36 months): 0.02%
Content (calculated by dried product )(%) (long-term stability test; 36 months, hydrochloride): 99.9%
Enantiomers (%) (long-term stability test; 36 months, hydrochloride): 0.07%
ImpurityA(%) (long-term stability test; 36 months, hydrochloride): 0.38%
ImpurityB(%) (long-term stability test; 36 months, hydrochloride): 0.02%
Loss on drying (%) (long-term stability test; 36 months, hydrochloride): 7.3%
Total relevant substances (%) (long-term stability test; 36 months, hydrochloride): 0.50%
appearance (long-term stability test; 36 months, hydrochloride): yellow crystalline powder
